Data as given in patent US12624003B2, “Carboxylic acid containing indanyl compounds for the treatment of neurodegenerative diseases” (Celgene Corporation, priority 2020, dated 2026).

Target: T1, S1P5 (Homo sapiens, UniProt Q9H228)
T1 construct: expressed in transfected cells; host or cells: CHO cells (membranes)
Experiment: [35S]-GTPγS functional binding assay on CHO-S1P5 membranes
Type: biochemical
Details: membranes of CHO cells expressing recombinant S1P5 receptors; measure of S1P5 agonism
Method: CHO cells expressing recombinant S1P5 receptors were cultured in 500 cm^2 culture trays and, once confluent, rinsed and detached with cell-lifting buffer (10 mM HEPES, 154 mM NaCl, 6.85 mM EDTA, pH 7.4). Cells were then pelleted by centrifugation, resuspended, and homogenized in membrane preparation buffer (10 mM HEPES and 10 mM EDTA, pH 7.4) using a Polytron PT 1200E homogenizer (Kinematica, Luzern, Switzerland). Cellular proteins were pelleted by centrifugation at 48,000×g at 4° C. for 30 minutes. The resulting supernatant was discarded, and the pellet was re-suspended again in membrane preparation buffer, homogenized for a second time, and then centrifuged again as described above. The final cellular protein pellet was suspended in ice cold resuspension buffer (10 mM HEPES and 0.1 mM EDTA, pH 7.4), divided into aliquots, and stored at −80° C. until use.
Functional binding assays for [^35S]-GTPγS were performed in 96-well non-binding surface plates with a final volume of 200 μL. The test compounds were serially diluted in DMSO and added to assay plates using a Tecan D300E digital printer with a total volume of 0.4 μL. The control sphingosine-1-phosphate (S1P) was prepared separately by preparing a 400 μM stock solution from a 100 nmol pellet of SIP in 10 mM Na2CO3 with 2% s-cyclodextrin. The serial dilution of S1P was done using complete assay buffer (20 mM HEPES, 10 mM MgCl2, 100 mM NaCl, 1 mM EDTA, 0.1% fatty acid free bovine serum albumin (BSA), and 30 μg/mL saponin, pH 7.4) and transferred to wells already containing 0.4 μL DMSO. All the wells were then loaded to a total volume of 40 μL of complete assay buffer, except the non-specific binding (NSB) wells. For NSB wells, 40 μL/well of 50 μM GTPγS (Sigma Aldrich, cat #G8634, St. Louis, MO) was added to wells containing 0.4 μL of DMSO. The assay was started by the addition of 120 μL/well of CHO-S1P receptor membrane solution containing 40 μg/mL of membrane protein, 16.67 μM guanosine diphosphate (GDP; Sigma Aldrich, cat #G7127, St. Louis, MO), and 2.5 mg/mL of WGA PVT SPA beads in complete buffer. Assay plates were then sealed and incubated at room temperature with gentle agitation for 30 minutes. Next, 40 μL/well of 1 nM of [^35S]-GTPγS (PerkinElmer, cat #NEG030X250UC, Waltham, MA) in basic assay buffer (20 mM HEPES, 10 mM MgCl2, 100 mM NaCl, and 1 mM EDTA, pH 7.4) was added to the assay plates to yield a final concentration of […] and the plates were further incubated for 40 minutes at room temperature with gentle agitation. The assay was terminated by centrifugation of the plates at 1000 rpm for 3 minutes using an Eppendorf 5810R centrifuge (Eppendorf, Hamburg, Germany) and G protein bound radioactivity was quantitated using a MicroBeta2 microplate scintillation counter (PerkinElmer, Waltham, MA). As G protein bound radioactivity directly correlates to receptor activation and coupling to the G protein, this assay is a measure of S1P5 agonism.

T1 sequence (Q9H228 whole entry, species assumed): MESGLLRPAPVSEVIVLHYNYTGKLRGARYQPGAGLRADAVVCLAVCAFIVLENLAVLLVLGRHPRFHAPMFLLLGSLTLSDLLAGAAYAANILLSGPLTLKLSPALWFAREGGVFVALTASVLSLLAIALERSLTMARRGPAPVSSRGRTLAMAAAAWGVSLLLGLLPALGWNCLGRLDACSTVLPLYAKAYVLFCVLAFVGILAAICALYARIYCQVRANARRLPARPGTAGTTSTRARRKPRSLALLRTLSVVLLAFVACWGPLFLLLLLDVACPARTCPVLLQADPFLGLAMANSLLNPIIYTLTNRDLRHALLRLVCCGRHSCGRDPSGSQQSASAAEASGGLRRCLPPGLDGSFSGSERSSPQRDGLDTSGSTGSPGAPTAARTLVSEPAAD

`O=C(O)C1CCN(C2CCc3cc(CCc4c(Cl)cccc4Cl)ccc32)CC1` (single isomer, unassigned) [Compound 22a, 1-(5-(2,6-dichlorophenethyl)-2,3-dihydro-1H-inden-1-yl)piperidine-4-carboxylic acid] was tested. Which EC50 did it give?
Its EC50 is ≤ 10 nM.

For `O=C(O)[C@@H]1CCN(C2CCc3cc(-c4ccc(C5CC5)c(F)c4)ccc32)C1` (single isomer, unassigned) [Compound 36a], which EC50 is on record?
The EC50 was ≤ 10 nM.

With `O=C(Cc1ccc2c(c1)CCC2N1CCC(C(=O)O)CC1)c1c(Cl)cccc1Cl` (single isomer, unassigned) [Compound 24, 1-(5-(2-(2,6-dichlorophenyl)-2-oxoethyl)-2,3-dihydro-1H-inden-1-yl)piperidine-4-carboxylic acid] as the compound, how does the EC50 read?
Its EC50 is 10 to 100 nM.

`O=C(O)C1C2CCC1CN(C1CCc3cc(C#Cc4cccc(F)c4)ccc31)C2` [Compound 10, (1R,5S,8s)-3-(5-((3-fluorophenyl)ethynyl)-2,3-dihydro-1H-inden-1-yl)-3-azabicyclo[3.2.1]-octane-8-carboxylic acid] was tested. Which EC50 did it give?
Its EC50 is 100 to 1000 nM.

For `O=C(O)C1CCN(C2CCc3cc(C#Cc4ccccc4F)ccc32)CC1` (single isomer, unassigned) [Compound 6a, 1-(5-((2-fluorophenyl)ethynyl)-2,3-dihydro-1H-inden-1-yl)piperidine-4-carboxylic acid], which EC50 is on record?
The EC50 was 10 to 100 nM.

`O=C(O)C1CCN(C2CCc3cc(-c4cccc5c4CCC5)ccc32)CC1` (single isomer, unassigned) [Compound 45, 1-(2,2′,3,3′-tetrahydro-1H,1′H-[4,5′-biinden]-1′-yl)piperidine-4-carboxylic acid] was tested. Which EC50 did it give?
The EC50 was 100 to 1000 nM.

Which EC50 does the source give for `O=C(O)C1CN(C2CCc3cc(C#Cc4cccc(F)c4)ccc32)C1` (single isomer, unassigned) [Compound 19, 1-(5-((3-fluorophenyl)ethynyl)-2,3-dihydro-1H-inden-1-yl)azetidine-3-carboxylic acid] here?
Its EC50 is ≤ 10 nM.

With `O=C(O)[C@@H]1CCN(C2CCc3cc(-c4ccc(C5CC5)c(F)c4)ccc32)C1` (single isomer, unassigned) [Compound 36b] as the compound, how does the EC50 read?
The EC50 was ≤ 10 nM.

For `O=C(O)C1CCN(C2CCc3cc(C#Cc4c(Cl)cccc4Cl)ccc32)CC1` (stereo not shown) [Compound 1, 1-(5-((2,6-dichlorophenyl)ethynyl)-2,3-dihydro-1H-inden-1-yl)piperidine-4-carboxylic acid], which EC50 is on record?
Its EC50 is ≤ 10 nM.

With `O=C(O)[C@@H]1[C@@H]2CN(C3CCc4cc(C#Cc5cccc(F)c5)ccc43)C[C@@H]21` (stereo partly drawn) [Compound 17, (1R,5S,6s)-3-(5-((3-fluorophenyl)ethynyl)-2,3-dihydro-1H-inden-1-yl)-3-azabicyclo[3.1.0]-hexane-6-carboxylic acid] as the compound, how does the EC50 read?
The EC50 was 10 to 100 nM.

Which EC50 does the source give for `O=C(O)C1CC2(C1)CN(C1CCc3cc(C#Cc4c(Cl)cccc4Cl)ccc31)C2` (stereo not shown) [Compound 21, 2-(5-((2,6-dichlorophenyl)ethynyl)-2,3-dihydro-1H-inden-1-yl)-2-azaspiro[3.3]heptane-6-carboxylic acid] here?
The EC50 was 10 to 100 nM.

For `COc1cc(OC)cc(-c2ccc3c(c2)CCC3N2CCC(C(=O)O)CC2)c1` (single isomer, unassigned) [Compound 40, 1-(5-(3,5-dimethoxyphenyl)-2,3-dihydro-1H-inden-1-yl)piperidine-4-carboxylic acid], which EC50 is on record?
The EC50 was 100 to 1000 nM.

For `O=C(O)[C@@H]1CCN(C2CCc3cc(-c4ccc(C5CC5)c(Cl)c4)ccc32)C1` (single isomer, unassigned) [Compound 34b], which EC50 is on record?
The EC50 was ≤ 10 nM.

For `O=C(O)[C@H]1CCCCN1C1CCc2cc(C#Cc3cccc(F)c3)ccc21` (single isomer, unassigned) [Compound 9b], which EC50 is on record?
The EC50 was 1000 to 10000 nM.

For `O=C(O)C1CCN(C2CCc3cc(CCc4c(Cl)cccc4Cl)ccc32)CC1` (single isomer, unassigned) [Compound 22b, 1-(5-(2,6-dichlorophenethyl)-2,3-dihydro-1H-inden-1-yl)piperidine-4-carboxylic acid], which EC50 is on record?
The EC50 was ≤ 10 nM.

`O=C(O)C1CCN(C2CCc3cc(CCc4cccc(F)c4)ccc32)CC1` (single isomer, unassigned) [Compound 26a, 1-(5-(3-fluorophenethyl)-2,3-dihydro-1H-inden-1-yl)piperidine-4-carboxylic acid] was tested. Which EC50 did it give?
Its EC50 is 100 to 1000 nM.

Which EC50 does the source give for `O=C(O)C1CCN(C2CCc3cc(CCc4cccc(Cl)c4)ccc32)CC1` (single isomer, unassigned) [Compound 27b, 1-(5-(3-chlorophenethyl)-2,3-dihydro-1H-inden-1-yl)piperidine-4-carboxylic acid] here?
The EC50 was 100 to 1000 nM.

For `O=C(O)C1CCN(C2CCc3cc(-c4ccc5c(c4)OCC5)ccc32)CC1` (single isomer, unassigned) [Compound 41, 1-(5-(2,3-dihydrobenzofuran-6-yl)-2,3-dihydro-1H-inden-1-yl)piperidine-4-carboxylic acid], which EC50 is on record?
The EC50 was 100 to 1000 nM.

With `O=C(O)[C@@H]1CCCN(C2CCc3cc(C#Cc4cccc(F)c4)ccc32)C1` (single isomer, unassigned) [Compound 7b] as the compound, how does the EC50 read?
Its EC50 is 100 to 1000 nM.

Which EC50 does the source give for `O=C(O)C1CCN(C2CCc3cc(-c4ccc5ocnc5c4)ccc32)CC1` (single isomer, unassigned) [Compound 42, 1-(5-(benzo[d]oxazol-5-yl)-2,3-dihydro-1H-inden-1-yl)piperidine-4-carboxylic acid] here?
Its EC50 is 1000 to 10000 nM.

For `O=C(O)[C@]12C[C@H]1CN(C1CCc3cc(C#Cc4c(Cl)cccc4Cl)ccc31)C2` (stereo partly drawn) [Compound 15, (1R,5R)-3-(5-((2,6-dichlorophenyl)ethynyl)-2,3-dihydro-1H-inden-1-yl)-3-azabicyclo[3.1.0]-hexane-1-carboxylic acid], which EC50 is on record?
Its EC50 is ≤ 10 nM.

Which EC50 does the source give for `O=C(O)C1CN(C2CCc3cc(C#Cc4cc(F)ccc4F)ccc32)C1` (single isomer, unassigned) [Compound 20, 1-(5-((2,5-difluorophenyl)ethynyl)-2,3-dihydro-1H-inden-1-yl)azetidine-3-carboxylic acid] here?
Its EC50 is ≤ 10 nM.

With `O=C(O)[C@H]1CCN(C2CCc3cc(-c4ccc(C5CC5)c(F)c4)ccc32)C1` (single isomer, unassigned) [Compound 37a] as the compound, how does the EC50 read?
Its EC50 is 100 to 1000 nM.

`O=C(O)C1(F)CCN(C2CCc3cc(C#Cc4c(Cl)cccc4Cl)ccc32)CC1` (single isomer, unassigned) [Compound 3b, 1-(5-((2,6-dichlorophenyl)ethynyl)-2,3-dihydro-1H-inden-1-yl)-4-fluoropiperidine-4-carboxylic acid] was tested. Which EC50 did it give?
The EC50 was ≤ 10 nM.

Which EC50 does the source give for `O=C(O)C1CCN(C2CCc3cc(-c4ccc5c(c4)CCO5)ccc32)CC1` (single isomer, unassigned) [Compound 43, 1-(5-(2,3-dihydrobenzofuran-5-yl)-2,3-dihydro-1H-inden-1-yl)piperidine-4-carboxylic acid] here?
The EC50 was 100 to 1000 nM.

Which EC50 does the source give for `O=C(O)C1CC2(C1)CN(C1CCc3cc(-c4ccc(C5CC5)c(Cl)c4)ccc31)C2` (stereo not shown) [Compound 39, 2-(5-(3-chloro-4-cyclopropylphenyl)-2,3-dihydro-1H-inden-1-yl)-2-azaspiro[3.3]heptane-6-carboxylic acid] here?
Its EC50 is 10 to 100 nM.

`O=C(O)[C@H]1CCCCN1C1CCc2cc(C#Cc3cccc(F)c3)ccc21` (single isomer, unassigned) [Compound 9a] was tested. Which EC50 did it give?
Its EC50 is 1000 to 10000 nM.

With `O=C(O)[C@@H]1CCCCN1C1CCc2cc(C#Cc3cccc(F)c3)ccc21` (single isomer, unassigned) [Compound 8a] as the compound, how does the EC50 read?
Its EC50 is 100 to 1000 nM.

How did the EC50 turn out when `CC1(C)CN(C2CCc3cc(C#Cc4cccc(F)c4)ccc32)CCC1C(=O)O` (stereo not shown) [Compound 5, 1-(5-((3-fluorophenyl)ethynyl)-2,3-dihydro-1H-inden-1-yl)-3,3-dimethylpiperidine-4-carboxylic acid] was run?
Its EC50 is 100 to 1000 nM.

Which EC50 does the source give for `O=C(O)[C@@H]1CCCN(C2CCc3cc(C#Cc4cccc(F)c4)ccc32)C1` (single isomer, unassigned) [Compound 7a] here?
Its EC50 is 10 to 100 nM.

For `O=C(O)C1CN(C2CCc3cc(-c4ccc(C5CC5)c(Cl)c4)ccc32)C1` (single isomer, unassigned) [Compound 30a, 1-(5-(3-chloro-4-cyclopropylphenyl)-2,3-dihydro-1H-inden-1-yl)azetidine-3-carboxylic acid], which EC50 is on record?
The EC50 was ≤ 10 nM.
